# Laboratory results: PubChem BioAssay (NCI)
#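 Cells were grown in 96-well plates and exposed to each compound for 48 hours at five concentrations; endpoints were interpolated linearly between bracketing concentrations, or set to the highest concentration if not reached. The concentration for full growth arrest is given as TGI.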
# How the values were obtained:
# Assay in all cases: NCI tumour cell line growth inhibition, 48 h
# [1] = tested on: DMS 114 small cell lung
# [2] = tested on: DMS 273 small cell lung
# [3] = tested on: KM20L2 colon
# [4] = tested on: M19-MEL melanoma
# [5] = tested on: P388 leukemia
# [6] = tested on: P388/ADR leukemia
# [7] = tested on: SN12K1 renal
# [8] = tested on: SNB-78 CNS
# [9] = tested on: RXF-631 renal
Compound,TGI [1],TGI [2],TGI [3],TGI [4],TGI [5],TGI [6],TGI [7],TGI [8],TGI [9]
O=NN(CCF)C(=O)NC1CC2CCC1C2 (centres undefined),> 100 µM,> 100 µM,> 100 µM,> 100 µM,50.3 µM,> 100 µM,> 100 µM,> 100 µM,
CN(C)CCNC(=O)c1cccc2cc3cc(O)ccc3nc12,3.13 µM,2.52 µM,8.13 µM,3.68 µM,1.25 µM,2.33 µM,2.66 µM,18.2 µM,
CCOC(=O)C(C)Sc1nnc(COc2ccccc2OC)n1-c1ccccc1 (centres undefined),28.1 µM,> 100 µM,> 100 µM,> 100 µM,,,,> 100 µM,
O=C1Nc2cc([N+](=O)[O-])c(Br)cc2C1=O,33.5 µM,37.3 µM,31.7 µM,31.6 µM,,,,50.1 µM,33.2 µM
CCCc1c(C(=O)OCC)[nH]c(-c2ccc(-c3[nH]c(C(=O)OCC)c(CCC)c3C(=O)OCC)s2)c1C(=O)OCC,> 100 µM,> 100 µM,> 100 µM,> 100 µM,,,,> 100 µM,
Cc1cn(C2CC(CCCO)C(CO)O2)c(=O)[nH]c1=O (centres undefined),> 100 µM,> 100 µM,> 100 µM,> 100 µM,,,,,
CC1(C)C2CCC3(OCCO3)C1C(O)C2 (centres undefined),,> 100 µM,> 100 µM,> 100 µM,,,,> 100 µM,> 100 µM
CCSCN(C)c1nc(N(C)C)nc(N(C)C)n1,89.7 µM,> 100 µM,> 100 µM,> 100 µM,,,,> 100 µM,
COc1cc(C2C(Cl)C(=O)N2NC(=O)c2ccc(NC(C)=O)cc2)ccc1O (centres undefined),> 100 µM,> 100 µM,> 100 µM,> 100 µM,,,,> 100 µM,
Cc1ccc(N(O)C(C)(C)C)cc1,> 100 µM,> 100 µM,> 100 µM,> 100 µM,> 100 µM,> 100 µM,> 100 µM,,
COC(=O)CC(C(C(=O)OCc1ccccc1)C(C)O)N1C(=O)OC(c2ccccc2)C1c1ccccc1 (centres undefined),> 100 µM,> 100 µM,> 100 µM,> 100 µM,,,,,> 100 µM
O=c1c2ccccc2nc(-c2ccccc2)n1NC(=S)Nc1ccc(Cl)cc1,> 100 µM,> 100 µM,,> 100 µM,,,,,
COc1ccc2nc3c(c(NCCCN(C)C)c2c1)CCCC3,28.5 µM,24.8 µM,22.4 µM,31 µM,,,,21.4 µM,28.7 µM
CC(=O)NNc1nc(C)c(C(=O)NNC(=O)C(=O)Nc2cccc(C(C)=O)c2)s1,34.2 µM,> 100 µM,> 100 µM,43.5 µM,,,,> 100 µM,68.3 µM
Cc1ccc(Sc2ccccc2[N+](=O)[O-])cc1,,82.5 µM,> 100 µM,> 100 µM,,,,95.4 µM,
CCC(COC(=O)CC[C@@H](NC(=O)C(C)NC(=O)C(C)OC1C(O)C(CO)OC(OCc2ccccc2)C1NC(C)=O)C(N)=O)NC1c2ccccc2Nc2cccc([N+](=O)[O-])c21 (some centres undefined),> 100 µM,> 100 µM,> 100 µM,> 100 µM,,,,> 100 µM,
CCOC(=O)c1cc2c(OCc3ccccc3)c(OC)cc3c2c(n1)N(c1ccc(OC)cc1)C(C)C3 (centres undefined),> 50 µM,> 50 µM,> 50 µM,> 50 µM,,,,,
COc1ccc2c(c1)OCCc1cn[nH]c1-2,> 100 µM,> 100 µM,> 100 µM,> 100 µM,> 100 µM,> 100 µM,> 100 µM,> 100 µM,
